Results taken from patent US8729074B2, “Inhibitors of PI3 kinase” (Amgen Inc., priority 2009, dated 2014).

System: phosphorylation of Akt at Serine 473 in U87 MG cells
Test: pAkt AlphaScreen (U87 cell)
Format: cell-based
Details: Homo sapiens, U-87 MG, 2 h; pAkt Ser473, U87 MG cells, compound two hours; average if run more than once
Experimental: pAkt AlphaScreen (U87 Cell)
The pAkt AlphaScreen® assay (PerkinElmer, Waltham, Mass.) determines whether there is phosphorylation of Akt at Serine 473 by recruitment of a phosphospecific antibody. This assay was performed using U87 MG cells. The U87 growth media consists of MEM (Gibco, Carlsbad, Calif.) supplemented with 10% FBS (Gibco), 1× Non-Essential Amino Acids (Gibco) and 1× Penicillin/Streptomycin/Glutamine (Gibco). The cells were maintained weekly using 0.05% Trypsin (Gibco) and replated in 150 mm TC—Treated Culture Dishes (Corning, Corning, N.Y.).
The first day of the assay, the adherent cells were trypsinized, media was added to the loose cells and cells were mixed to a homogenous mixture. 0.5 ml of the homogenous mixture was counted on the Beckman Coulter® Vi-CELL™ XR (Fullerton, Calif.). 50 frames of cells were counted and the number of viable cells was determined. The cells were then diluted to 0.25 million cells per ml, and centrifuged at 200 rcf for 5 minutes. The media was removed and the cells were reconstituted in fresh media for plating. The cells were plated at 20 μl per well on the PerkinElmer® Flexprop PLUS in Low Volume 384 Well White Tissue Culture Plates (Corning) with a final cell density of 5K cells per well. The plates were incubated overnight at 37° Celsius, 5% CO2.
On the second day, the compound plates were prepared, the cells were treated with compound and the pAkt reaction mix was added to the cell lysate. 384 well compound plates were prepared containing 1 μl of compound per well starting at 5 mM and diluted 1:2 across the row, resulting in a 22 well serial dilution. 39 μl of growth media was added to the compound plate in rows 1-22 using the PerkinElmer® Flexprop PLUS resulting in a DMSO concentration of 2.5%. The cell plates and diluted compound plates were put onto the VELOCITY11™ VPREP™ 384 ST where the compound plate was mixed and 5 μl of serially diluted compound or controls was added to the cell plate. The final concentration of the compounds was 25 μM serially diluted to 11.9 pM in 0.5% DMSO. The cell plates were then incubated with compound for two hours at 37° Celsius, 5% CO2. After two hours, the media in the cell plates was aspirated using the BioTek® ELx405HT plate washer (Winooski, Vt.) removing the majority of media and compound without disturbing the adherent U87 cells. The following assay reagents are components of the SureFire® Akt (Ser 473) Phosphorylation 50K Point Kit (TGR BioSciences, Adelaide, Australia) and an IgG Detection Kit (PerkinElmer, Waltham, Mass.). 5 μl of 1× Lysis Buffer was added to each well using the PerkinElmer® Flexprop PLUS. The plates were then incubated at room temperature on a shaker for ten minutes. The AlphaScreen® reaction was prepared under low light conditions (subdued or green light) including p-Akt (Ser 473) Reaction Buffer, Dilution Buffer, Activation Buffer, Acceptor Beads and Donor Beads at a ratio of 40:20:10:1:1 respectively. The AlphaScreen® reaction was added to the cell lysate at 6 μl per well using the PerkinElmer® Flexprop PLUS. The plates were placed in a humid environment to reduce edge effects and incubated overnight at room temperature with restricted air flow in the dark.
On the final day of the experiment, the plates were read on the PerkinElmer® EnVision™ 2103 Multilable Reader using the standard AlphaScreen® readout. The POC is calculated and the data is analyzed to report the IC50 IP for pAkt at Serine 473.
Activity data for the compounds tested in the PI3K cell based Akt assay is provided in Table 1 under the column heading U87

Q: How did the IC50 turn out when `O=S(=O)(Nc1cc(-c2cnc3ccc(N4CCOCC4)cn23)cnc1Cl)c1ccc(F)cc1` [Example 9, N-(2-Chloro-5-(6-(4-morpholinyl)imidazo[1,2-a]pyridin-3-yl)-3-pyridinyl)-4-fluorobenzenesulfonamide] was run?
A: Its IC50 is 76 nM.

Q: `COc1cc(-c2cnc3ccc(-c4ccncc4)cn23)cnc1OC` [Example 12, 3-(5,6-Dimethoxy-3-pyridinyl)-6-(4-pyridinyl)imidazo[1,2-a]pyridine] was tested. Which IC50 did it give?
A: The IC50 was 2190 nM.

Q: `CN(C)S(=O)(=O)Nc1cc(-c2cnc3ccc(-c4ccncc4)cn23)cnc1Cl` [Example 18, N-(2-Chloro-5-(6-(pyridin-4-yl)imidazo[1,2-a]pyridin-3-yl)pyridin-3-yl)dimethylaminosulfonamide] was tested. Which IC50 did it give?
A: Its IC50 is 7 nM.

Q: Which IC50 does the source give for `CN(C)S(=O)(=O)Nc1cc(-c2cnc3cc(-c4ccncc4)ccn23)cnc1Cl` [Example 21, N′-(2-Chloro-5-(7-(4-pyridinyl)imidazo[1,2-a]pyridin-3-yl)-3-pyridinyl)-N,N-dimethylsulfamide] here?
A: Its IC50 is 281 nM.

Q: With `COc1cc(-c2cnc3ccc(N4CCOCC4)cn23)cnc1OC` [Example 16, 3-(5,6-Dimethoxy-3-pyridinyl)-6-(4-morpholinyl)imidazo[1,2-a]pyridine] as the compound, how does the IC50 read?
A: The IC50 was 3990 nM.

Q: With `O=S(=O)(Nc1cc(-c2cnc3ccc(Br)cn23)cnc1Cl)c1ccc(F)cc1` [Example 6, N-(5-(6-Bromoimidazo[1,2-a]pyridin-3-yl)-2-chloro-3-pyridinyl)-4-fluorobenzenesulfonamide] as the compound, how does the IC50 read?
A: The IC50 was 208 nM.

Q: For `COc1cc(-c2cnc3ccccn23)cnc1OC` [Example 10, 3-(5,6-Dimethoxy-3-pyridinyl)imidazo[1,2-a]pyridine], which IC50 is on record?
A: The IC50 was > 25000 nM.

Q: How did the IC50 turn out when `CN(C)S(=O)(=O)Nc1cc(-c2cnc3ccc(-c4ccnc(C(F)(F)F)c4)cn23)cnc1Cl` [Example 19, N-(2-Chloro-5-(6-(2-(trifluoromethyl)pyridin-4-yl)imidazo[1,2-a]pyridin-3-yl)pyridin-3-yl)dimethylaminosulfonamid] was run?
A: Its IC50 is 9 nM.

Q: How did the IC50 turn out when `O=S(=O)(Nc1cc(-c2cnc3ccc(-c4cccnc4)cn23)cnc1Cl)c1ccc(F)cc1` [Example 8, N-(2-Chloro-5-(6-(3-pyridinyl)imidazo[1,2-a]pyridin-3-yl)-3-pyridinyl)-4-fluorobenzenesulfonamide] was run?
A: Its IC50 is 83 nM.

Q: `Cc1cc2ncc(-c3cnc(Cl)c(NS(=O)(=O)N(C)C)c3)n2cc1-c1ccncc1` [Example 23, N′-(2-Chloro-5-(7-methyl-6-(4-pyridinyl)imidazo[1,2-a]pyridin-3-yl)-3-pyridinyl)-N,N-dimethylsulfamide] was tested. Which IC50 did it give?
A: The IC50 was 8 nM.

Q: With `COc1cc(-c2cnc3ccc(Br)cn23)cnc1OC` [Example 11, 6-Bromo-3-(5,6-dimethoxy-3-pyridinyl)imidazo[1,2-a]pyridine] as the compound, how does the IC50 read?
A: Its IC50 is 4980 nM.

Q: Which IC50 does the source give for `CS(=O)(=O)Nc1cc(-c2cnc3cc(-c4cccnc4)ccn23)cnc1Cl` [Example 20, N-(2-Chloro-5-(7-(pyridin-3-yl)imidazo[1,2-a]pyridin-3-yl)pyridin-3-yl)methanesulfonamide] here?
A: The IC50 was 32 nM.

Q: How did the IC50 turn out when `O=S(=O)(Nc1cc(-c2cnc3ccc(-c4ccncc4)cn23)cnc1Cl)c1ccc(F)cc1` [Example 7, N-(2-Chloro-5-(6-(4-pyridinyl)imidazo[1,2-a]pyridin-3-yl)-3-pyridinyl)-4-fluorobenzenesulfonamide] was run?
A: Its IC50 is 42 nM.

Q: `Cc1nc2ccc(Br)cn2c1-c1cnc(Cl)c(NS(=O)(=O)c2ccc(F)cc2)c1` [Example 5, N-(5-(6-Bromo-2-methylimidazo[1,2-a]pyridin-3-yl)-2-chloro-3-pyridinyl)-4-fluorobenzenesulfonamide] was tested. Which IC50 did it give?
A: The IC50 was 1220 nM.

Q: `COc1cc(-c2cnc3ccc(N4CCOC4=O)cn23)cnc1OC` [Example 13, 3-(3-(5,6-Dimethoxy-3-pyridinyl)imidazo[1,2-a]pyridin-6-yl)-1,3-oxazolidin-2-one] was tested. Which IC50 did it give?
A: The IC50 was > 25000 nM.

Q: `CN(C)S(=O)(=O)Nc1cc(-c2cnc3cc(-c4cccnc4)ccn23)cnc1Cl` [Example 22, N′-(2-Chloro-5-(7-(3-pyridinyl)imidazo[1,2-a]pyridin-3-yl)-3-pyridinyl)-N,N-dimethylsulfamide] was tested. Which IC50 did it give?
A: Its IC50 is 168 nM.
